Assay results from patent US20260374773A1, “MULTI-CYCLIC IRAK AND FLT3 INHIBITING COMPOUNDS AND USES THEREOF” (CHILDREN'S HOSPITAL MEDICAL CENTER, priority 2022, published 2026).

What was measured:
FLT3 ITD = biological target: T1, FLT3 ITD (Homo sapiens, UniProt P36888, ITD); assay: DiscoverX KINOMEscan active site-directed competition binding, FLT3 ITD; conditions: no ATP
T1 construct: T7 phage/E. coli or HEK-293 expression
T1 sequence (P36888 27-993): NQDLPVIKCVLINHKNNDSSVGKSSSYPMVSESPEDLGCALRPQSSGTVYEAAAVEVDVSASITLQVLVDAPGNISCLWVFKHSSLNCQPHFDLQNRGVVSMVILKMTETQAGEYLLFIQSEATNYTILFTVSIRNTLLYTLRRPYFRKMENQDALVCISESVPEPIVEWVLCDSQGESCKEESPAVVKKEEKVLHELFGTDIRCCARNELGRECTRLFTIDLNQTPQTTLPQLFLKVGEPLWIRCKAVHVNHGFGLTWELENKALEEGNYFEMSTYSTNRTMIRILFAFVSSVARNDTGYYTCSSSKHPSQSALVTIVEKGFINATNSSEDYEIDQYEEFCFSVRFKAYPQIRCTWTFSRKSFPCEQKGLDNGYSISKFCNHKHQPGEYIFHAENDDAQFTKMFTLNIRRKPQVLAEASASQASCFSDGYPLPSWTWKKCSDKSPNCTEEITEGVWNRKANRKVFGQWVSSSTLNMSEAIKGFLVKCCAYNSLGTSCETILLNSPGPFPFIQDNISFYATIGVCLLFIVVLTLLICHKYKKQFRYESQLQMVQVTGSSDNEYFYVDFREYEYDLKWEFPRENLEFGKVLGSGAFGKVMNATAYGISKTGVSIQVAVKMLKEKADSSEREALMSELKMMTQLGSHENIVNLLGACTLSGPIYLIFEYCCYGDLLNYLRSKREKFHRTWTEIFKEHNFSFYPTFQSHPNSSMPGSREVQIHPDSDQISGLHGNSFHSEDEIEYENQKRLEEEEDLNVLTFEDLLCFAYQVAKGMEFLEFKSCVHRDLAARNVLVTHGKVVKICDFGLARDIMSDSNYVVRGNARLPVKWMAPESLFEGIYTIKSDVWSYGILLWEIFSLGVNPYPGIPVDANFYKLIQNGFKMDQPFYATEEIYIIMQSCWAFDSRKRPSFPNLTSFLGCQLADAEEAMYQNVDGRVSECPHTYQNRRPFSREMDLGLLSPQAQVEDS
From the text: (§1) Kinase binding data were obtained for various exemplary compounds prepared according to Examples 1-8 using the DiscoverX KINOMEscan® active site-directed competition binding site-directed assay protocol described below. […] As a result, the data report thermodynamic interaction affinities (Kd values), rather than IC50 values that are dependent on ATP concentrations. The assay uses a DNA-tagged version of the protein kinase, and an immobilized ligand bound to a solid support. Compounds that directly or indirectly prevent kinase binding to the immobilized ligand reduce the amount of kinase captured on the solid support, which is detected using an ultra-sensitive qPCR method. Affinity constants reported from the assay have been reported to be independent of the immobilized ligand used that is coupled to the solid support (See supplemental information in Fabian, M. A. et. al., (2005) Nat. Biotechnol. 23, 329-336; Wodicka, L. M. et. al., (2010) Chem. Biol. 17, 1241-1249.)
(§2) Kinase-tagged T7 phage strains were prepared in an E. coli host derived from the BL21 strain. E. coli were grown to log-phase and infected with T7 phage and incubated with shaking at 32 °C until lysis. The lysates were centrifuged and filtered to remove cell debris. The remaining kinases were produced in HEK-293 cells and subsequently tagged with DNA for qPCR detection. Streptavidin-coated magnetic beads were treated with biotinylated small molecule ligands for 30 minutes at room temperature to generate affinity resins for kinase assays. The liganded beads were blocked with excess biotin and washed with blocking buffer (SeaBlock (Pierce), 1% BSA, 0.05% Tween 20, 1 mM DTT) to remove unbound ligand and to reduce non-specific binding. […] Test compounds were prepared as 111x stocks in 100% DMSO. Kds were determined using an 11-point 3-fold compound dilution series with three DMSO control points. All compounds for Kd measurements are distributed by acoustic transfer (non-contact dispensing) in 100% DMSO. The compounds were then diluted directly into the assays such that the final concentration of DMSO was 0.9%. All reactions were performed in polypropylene 384-well plates. Each was a final volume of 0.02 mL. The assay plates were incubated at room temperature with shaking for 1 hour and the affinity beads were washed with wash buffer (1×PBS, 0.05% Tween 20). The beads were then re-suspended in elution buffer (1×PBS, 0.05% Tween 20, 0.5 μM nonbiotinylated affinity ligand) and incubated at room temperature with shaking for 30 minutes. The kinase concentration in the eluates was measured by qPCR. Binding constants (Kds) were calculated with a standard dose-response curve using the Hill equation. The Hill Slope was set to −1. Curves were fitted using a non-linear least square fit with the Levenberg-Marquardt algorithm.
as §1, with “9-12” for “1-8”
(§3) Kinase-tagged T7 phage strains were prepared in an E. coli host derived from the BL21 strain. […]

FLT3 ITD, F691L = biological target: T2, FLT3 ITD, F691L (Homo sapiens, UniProt P36888, F691L/ITD); assay: DiscoverX KINOMEscan active site-directed competition binding, FLT3 ITD, F691L; conditions: no ATP
T2 construct: F691L gatekeeper
T2 sequence (P36888 27-993 F691L): T1 sequence (P36888 27-993)
From the text: as §1, §2
as §1, with “9-12” for “1-8”
as §3

SMILES | Kd (FLT3 ITD; Table 18) [pM] | Kd (FLT3 ITD, F691L; Table 19) [pM] | Kd (FLT3 ITD; Table 12) [pM] | Kd (FLT3 ITD, F691L; Table 13) [pM]
COc1cn2ncc(-c3nc(N[C@H]4CNCC[C@@H]4F)ncc3F)c2nc1C(C)(C)O [Compound 6a, 2-(3-(5-fluoro-2-(((3S,4S)-4-fluoropiperidin-3-yl)amino)pyrimidin-4-yl)-6-methoxypyrazolo[1,5-a]pyrimidin-5-yl)propan-2-ol] | 230 | < 170 |  | 
COc1cn2ncc(-c3nc(N[C@@H]4CCCNC4)ncc3F)c2nc1C1CC1 [Compound 14a, (R)-4-(5-cyclopropyl-6-methoxypyrazolo[1,5-a]pyrimidin-3-yl)-5-fluoro-N-(piperidin-3-yl)pyrimidin-2-amine] | < 170 | < 170 |  | 
COc1cn2ncc(-c3ccnc(N[C@H]4CNCC[C@@H]4F)n3)c2nc1C1CC1 [Compound 7a, 4-(5-cyclopropyl-6-methoxypyrazolo[1,5-a]pyrimidin-3-yl)-N-((3S,4S)-4-fluoropiperidin-3-yl)pyrimidin-2-amine] | 530 | < 170 |  | 
COc1cn2ncc(-c3nc(N[C@H]4CNCC[C@@H]4F)c(C#N)cc3F)c2nc1C(C)(C)O [Compound 10, 5-fluoro-2-(((3S,4S)-4-fluoropiperidin-3-yl)amino)-6-(5-(2-hydroxypropan-2-yl)-6-methoxypyrazolo[1,5-a]pyrimidin-3-yl)nicotinonitrile] |  |  | 280 | < 170
COc1cn2ncc(-c3cncc(N[C@H]4CNCC[C@@H]4F)n3)c2nc1C1CC1 [Compound 12a, 6-(5-cyclopropyl-6-methoxypyrazolo[1,5-a]pyrimidin-3-yl)-N-((3S,4S)-4-fluoropiperidin-3-yl)pyrazin-2-amine] | 390 | < 170 |  | 
COc1cn2ncc(-c3nc(N[C@H]4CNCC[C@@H]4F)c(F)cc3F)c2nc1C(C)(C)O [Compound 13, 2-(3-(3,5-difluoro-6-(((3S,4S)-4-fluoropiperidin-3-yl)amino)pyridin-2-yl)-6-methoxypyrazolo[1,5-a]pyrimidin-5-yl)propan-2-ol] |  |  | 210 | < 170
COc1cn2ncc(-c3nc(N[C@H]4CNCC[C@@H]4F)c(C#N)cc3F)c2nc1C1CC1 [Compound 7, 6-(5-cyclopropyl-6-methoxypyrazolo[1,5-a]pyrimidin-3-yl)-5-fluoro-2-(((3S,4S)-4-fluoropiperidin-3-yl)amino)nicotinonitrile] |  |  | 410 | < 170
COc1cn2ncc(-c3nc(N[C@H]4CNCC[C@@H]4F)ncc3F)c2nc1C1CC1 [Compound 15a, 4-(5-cyclopropyl-6-methoxypyrazolo[1,5-a]pyrimidin-3-yl)-5-fluoro-N-((3S,4S)-4-fluoropiperidin-3-yl)pyrimidin-2-amine] | 250 | < 170 |  | 
